Reference: ChEMBL document CHEMBL4715697, “Synthesis and biological activity of benzamide DNA minor groove binders” (2016)

What was measured:
Assay type in all cases: functional
Hs-578T = assay: Growth inhibition of human Hs-578T cells assessed as cell growth at 0.01 uM incubated for 48 hrs by sulforhodamine B assay relative to control; settings: read-out: Activity
OVCAR-8 = assay: Growth inhibition of human OVCAR-8 cells assessed as cell growth at 0.01 uM incubated for 48 hrs by sulforhodamine B assay relative to control; settings: read-out: Activity
TK-10 [1] = assay: Growth inhibition of human TK-10 cells assessed as cell growth at 100 uM incubated for 48 hrs by sulforhodamine B assay relative to control; settings: read-out: Activity
PC-3 = assay: Growth inhibition of human PC-3 cells assessed as cell growth at 0.01 uM incubated for 48 hrs by sulforhodamine B assay relative to control; settings: read-out: Activity
CAKI-1 [2] = assay: Growth inhibition of human CAKI-1 cells assessed as cell growth at 0.01 uM incubated for 48 hrs by sulforhodamine B assay relative to control; settings: read-out: Activity
HCC 2998 = assay: Growth inhibition of human HCC 2998 cells assessed as cell growth at 100 uM incubated for 48 hrs by sulforhodamine B assay relative to control; settings: read-out: Activity
MDA-MB-435 = assay: Growth inhibition of human MDA-MB-435 cells incubated for 48 hrs by sulforhodamine B assay
Malme-3M = assay: Growth inhibition of human Malme-3M cells incubated for 48 hrs by sulforhodamine B assay
SK-MEL-5 [3] = assay: Growth inhibition of human SK-MEL-5 cells assessed as cell growth at 100 uM incubated for 48 hrs by sulforhodamine B assay relative to control; settings: read-out: Activity
DU-145 [4] = assay: Growth inhibition of human DU-145 cells assessed as cell growth at 100 uM incubated for 48 hrs by sulforhodamine B assay relative to control; settings: read-out: Activity
DU-145 [5] = assay: Growth inhibition of human DU-145 cells assessed as cell growth at 0.1 uM incubated for 48 hrs by sulforhodamine B assay relative to control; settings: read-out: Activity
UO-31 = assay: Growth inhibition of human UO-31 cells assessed as cell growth at 0.1 uM incubated for 48 hrs by sulforhodamine B assay relative to control; settings: read-out: Activity
A549 = assay: Growth inhibition of human A549/ATCC cells assessed as cell growth at 100 uM incubated for 48 hrs by sulforhodamine B assay relative to control; settings: read-out: Activity
NCI-H226 = assay: Growth inhibition of human NCI-H226 cells assessed as cell growth at 0.1 uM incubated for 48 hrs by sulforhodamine B assay relative to control; settings: read-out: Activity
NCI-H522 = assay: Growth inhibition of human NCI-H522 cells assessed as cell growth at 0.01 uM incubated for 48 hrs by sulforhodamine B assay relative to control; settings: read-out: Activity
NCI-H23 = assay: Growth inhibition of human NCI-H23 cells incubated for 48 hrs by sulforhodamine B assay
M14 = assay: Growth inhibition of human M14 cells assessed as cell growth at 100 uM incubated for 48 hrs by sulforhodamine B assay relative to control; settings: read-out: Activity
ACHN = assay: Growth inhibition of human ACHN cells assessed as cell growth at 1 uM incubated for 48 hrs by sulforhodamine B assay relative to control; settings: read-out: Activity
UACC-257 = assay: Growth inhibition of human UACC-257 cells assessed as cell growth at 100 uM incubated for 48 hrs by sulforhodamine B assay relative to control; settings: read-out: Activity
OVCAR-3 = assay: Growth inhibition of human OVCAR-3 cells incubated for 48 hrs by sulforhodamine B assay
HT-29 [6] = assay: Growth inhibition of human HT-29 cells assessed as cell growth at 1 uM incubated for 48 hrs by sulforhodamine B assay relative to control; settings: read-out: Activity
TK-10 [7] = assay: Growth inhibition of human TK-10 cells assessed as cell growth at 1 uM incubated for 48 hrs by sulforhodamine B assay relative to control; settings: read-out: Activity
CAKI-1 [8] = assay: Growth inhibition of human CAKI-1 cells assessed as cell growth at 1 uM incubated for 48 hrs by sulforhodamine B assay relative to control; settings: read-out: Activity
KM12 = assay: Growth inhibition of human KM12 cells assessed as cell growth at 1 uM incubated for 48 hrs by sulforhodamine B assay relative to control; settings: read-out: Activity
SK-MEL-5 [9] = assay: Growth inhibition of human SK-MEL-5 cells assessed as cell growth at 0.1 uM incubated for 48 hrs by sulforhodamine B assay relative to control; settings: read-out: Activity
SF-268 = assay: Growth inhibition of human SF-268 cells incubated for 48 hrs by sulforhodamine B assay
SF-539 = assay: Growth inhibition of human SF-539 cells assessed as cell growth at 0.1 uM incubated for 48 hrs by sulforhodamine B assay relative to control; settings: read-out: Activity
OVCAR-4 = assay: Growth inhibition of human OVCAR-4 cells assessed as cell growth at 0.1 uM incubated for 48 hrs by sulforhodamine B assay relative to control; settings: read-out: Activity
UACC-62 = assay: Growth inhibition of human UACC-62 cells incubated for 48 hrs by sulforhodamine B assay
TK-10 [10] = assay: Growth inhibition of human TK-10 cells incubated for 48 hrs by sulforhodamine B assay
HT-29 [11] = assay: Growth inhibition of human HT-29 cells assessed as cell growth at 0.01 uM incubated for 48 hrs by sulforhodamine B assay relative to control; settings: read-out: Activity
HCT-15 = assay: Growth inhibition of human HCT-15 cells assessed as cell growth at 100 uM incubated for 48 hrs by sulforhodamine B assay relative to control; settings: read-out: Activity
786-0 = assay: Growth inhibition of human 786-0 cells assessed as cell growth at 100 uM incubated for 48 hrs by sulforhodamine B assay relative to control; settings: read-out: Activity
IGROV-1 = assay: Growth inhibition of human IGROV-1 cells assessed as cell growth at 1 uM incubated for 48 hrs by sulforhodamine B assay relative to control; settings: read-out: Activity
[12] = read-out: LC50 (the source's name)
[13] = read-out: pLC50 (the source's name) (converted)

## CC(=O)Nc1cc(CCl)cc(NC(=O)c2ccc(C(=O)Nc3cccc(NC(=O)CCCN(C)C)c3)cc2)c1
Hs-578T
  growth at 0.01 µM: 115%
OVCAR-8
  growth at 0.01 µM: 102%
TK-10 [1]
  growth at 100 µM: 129%
PC-3
  growth at 0.01 µM: 104%
CAKI-1 [2]
  growth at 0.01 µM: 100%
HCC 2998
  growth at 100 µM: 93%
MDA-MB-435; read-out: GI50
  GI50: > 100 µM
MDA-MB-435; read-out: LC50
  LC50 (50% lethal concentration): > 100 µM
MDA-MB-435; read-out: TGI
  TGI: > 100 µM
MDA-MB-435; read-out: pGI50 (converted)
  GI50: > 100 µM
MDA-MB-435; read-out: pLC50 (converted)
  LC50 (50% lethal concentration): > 100 µM
MDA-MB-435; read-out: pTGI
  TGI: > 100 µM
Malme-3M; read-out: GI50
  GI50: > 100 µM
Malme-3M; read-out: LC50
  LC50 (concentration killing 50% of cells): > 100 µM
Malme-3M; read-out: TGI
  TGI: > 100 µM
Malme-3M; read-out: pGI50 (converted)
  GI50: > 100 µM
Malme-3M; read-out: pLC50 (converted)
  LC50 (concentration killing 50% of cells): > 100 µM
Malme-3M; read-out: pTGI
  TGI: > 100 µM
SK-MEL-5 [3]
  growth at 100 µM: 75%
DU-145 [4]
  growth at 100 µM: 94%
DU-145 [5]
  growth at 0.1 µM: 106%
UO-31
  growth at 0.1 µM: 97%
A549
  growth at 100 µM: 88%
NCI-H226
  growth at 0.1 µM: 92%
NCI-H522
  growth at 0.01 µM: 96%
NCI-H23; read-out: GI50
  GI50: > 100 µM
NCI-H23; [12]
  CC50: > 100 µM
NCI-H23; read-out: TGI
  TGI: > 100 µM
NCI-H23; read-out: pGI50 (converted)
  GI50: > 100 µM
NCI-H23; [13]
  CC50: > 100 µM
NCI-H23; read-out: pTGI
  TGI: > 100 µM
M14
  growth at 100 µM: 91%
ACHN
  growth at 1 µM: 96%
UACC-257
  growth at 100 µM: 105%
OVCAR-3; read-out: GI50
  GI50: > 100 µM
OVCAR-3; read-out: LC50
  LC50 (50% lethal concentration): > 100 µM
OVCAR-3; read-out: TGI
  TGI: > 100 µM
OVCAR-3; read-out: pGI50 (converted)
  GI50: > 100 µM
OVCAR-3; read-out: pLC50 (converted)
  LC50 (50% lethal concentration): > 100 µM
OVCAR-3; read-out: pTGI
  TGI: > 100 µM
HT-29 [6]
  growth at 1 µM: 101%
TK-10 [7]
  growth at 1 µM: 102%
CAKI-1 [8]
  growth at 1 µM: 95%
KM12
  growth at 1 µM: 107%
SK-MEL-5 [9]
  growth at 0.1 µM: 92%
SF-268; read-out: GI50
  GI50: > 100 µM
SF-268; read-out: LC50
  LC50: > 100 µM
SF-268; read-out: TGI
  TGI: > 100 µM
SF-268; read-out: pGI50 (converted)
  GI50: > 100 µM
SF-268; read-out: pLC50 (converted)
  LC50: > 100 µM
SF-268; read-out: pTGI
  TGI: > 100 µM
SF-539
  growth at 0.1 µM: 103%
OVCAR-4
  growth at 0.1 µM: 94%
UACC-62; read-out: GI50
  GI50: > 100 µM
UACC-62; [12]
  CC50: > 100 µM
UACC-62; read-out: TGI
  TGI: > 100 µM
UACC-62; read-out: pGI50 (converted)
  GI50: > 100 µM
UACC-62; [13]
  CC50: > 100 µM
UACC-62; read-out: pTGI
  TGI: > 100 µM
TK-10 [10]; read-out: GI50
  GI50: > 100 µM
TK-10 [10]; [12]
  CC50: > 100 µM
TK-10 [10]; read-out: TGI
  TGI: > 100 µM
TK-10 [10]; read-out: pGI50 (converted)
  GI50: > 100 µM
TK-10 [10]; [13]
  CC50: > 100 µM
TK-10 [10]; read-out: pTGI
  TGI: > 100 µM
HT-29 [11]
  growth at 0.01 µM: 103%
HCT-15
  growth at 100 µM: 84%
786-0
  growth at 100 µM: 122%
IGROV-1
  growth at 1 µM: 110%
